Measured values taken from patent publication EP4678634A1, “ANDROGEN RECEPTOR MODULATORS AND USES THEREOF” (Haihe Biopharma Co., Ltd., priority 2023, dated 2024).

Target: T1, Androgen receptor (AR) (Homo sapiens, UniProt P10275)
T1 construct: expressed in transfected cells; host or cells: HEK293T (AR+ARE/Luc)
T1 sequence (P10275 1-920): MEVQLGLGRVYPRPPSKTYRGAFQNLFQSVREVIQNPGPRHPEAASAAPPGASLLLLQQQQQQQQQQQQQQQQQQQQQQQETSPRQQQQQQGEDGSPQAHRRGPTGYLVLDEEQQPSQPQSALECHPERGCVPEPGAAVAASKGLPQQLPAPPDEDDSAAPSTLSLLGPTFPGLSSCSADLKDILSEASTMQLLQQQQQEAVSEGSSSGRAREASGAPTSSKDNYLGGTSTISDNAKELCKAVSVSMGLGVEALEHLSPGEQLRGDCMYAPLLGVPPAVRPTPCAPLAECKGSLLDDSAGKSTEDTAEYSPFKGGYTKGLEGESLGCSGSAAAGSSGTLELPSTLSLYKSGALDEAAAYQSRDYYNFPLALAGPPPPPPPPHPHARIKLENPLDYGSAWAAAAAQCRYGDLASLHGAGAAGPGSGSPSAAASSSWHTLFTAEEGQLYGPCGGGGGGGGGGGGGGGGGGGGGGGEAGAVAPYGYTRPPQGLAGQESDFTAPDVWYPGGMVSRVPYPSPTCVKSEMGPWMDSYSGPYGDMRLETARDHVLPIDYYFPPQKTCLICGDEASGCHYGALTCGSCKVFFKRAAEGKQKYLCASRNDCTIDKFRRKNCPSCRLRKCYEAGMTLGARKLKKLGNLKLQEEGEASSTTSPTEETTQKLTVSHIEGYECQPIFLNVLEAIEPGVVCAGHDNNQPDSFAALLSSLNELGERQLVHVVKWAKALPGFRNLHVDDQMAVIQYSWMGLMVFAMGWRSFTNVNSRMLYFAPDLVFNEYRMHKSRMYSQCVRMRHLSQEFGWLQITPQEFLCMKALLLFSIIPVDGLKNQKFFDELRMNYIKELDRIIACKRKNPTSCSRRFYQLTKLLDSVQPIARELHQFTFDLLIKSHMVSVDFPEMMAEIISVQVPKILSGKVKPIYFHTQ
Test: Androgen receptor (AR) reporter gene assay (luciferase)
Type: cell-based
Settings: AR+ARE/Luc HEK293T cells, stimulated with 11-KDHT, 24h incubation, Bright-Lite luminescence; read-out: HEK293 Luc IC50
Protocol: Androgen receptor (AR) reporter gene assay
Experimental reagents: 11-Ketodihydrotestosterone (11-KDHT) was purchased from MCE (cat.HY-135794); Enzalutamide (MDV3100) was purchased from Selleck (cat.S1250); Bright-Lite Luciferase Assay kit was purchased from Vazyme (cat.DD1204-01);
• 1. dissolve the described compounds in 100% DMSO at a final concentration of 10 mM. 100 nL each of 400X compound to be tested and 400X 11-KDHT (40 nM) were added to a 384-well assay plate with Echo, followed by 20 µL of complete medium, and centrifuged at 1000 rpm for 1 min, and oscillated for 20-30 min at room temperature. • 2. 20 µL of AR+ARE/Luc HEK293T cells (10,000 cells/well) were inoculated into the assay plate containing the compounds and 11-KDHT, and centrifuged at 1000 rpm for 1 min. The assay plate was incubated in a 37 °C CO2 incubator for 24h. • 3. 40 µL of Bright-Lite assay reagent was transferred to each well of the assay plate, centrifuged at 1000 rpm for 1 min, and shaken for 2 min at room temperature protected from light. Luminescence values (RLU) were measured using Envision. Based on the results, the IC50 values of the compounds described were calculated. Table 1 HEK293-Luc% inhibition IC50 of representative compounds

Row | SMILES | IC50
1 | NCc1cc2c(c(Cl)c1OCCCl)CCCC2c1cnc2[nH]ncc2c1 (stereo not shown) [HANT-184] | 500 to 1000 nM
2 | N#Cc1cc2c(c(Cl)c1OCCCl)CCCC2NC(=O)c1ccc2[nH]ncc2c1 (stereo not shown) [HANT-186] | 1 to 500 nM
3 | N#Cc1cc2c(c(Cl)c1OCCCl)CCCC2NC(=O)c1cn[nH]c1 (stereo not shown) [HANT-187] | 1 to 500 nM
4 | N#Cc1cc2c(c(Cl)c1OCCCl)CCCC2c1cccc2[nH]ncc12 (stereo not shown) [HANT-193, 4-chloro-3-(2-chloroethoxy)-8-(1H-indazol-7-yl)-5,6,7,8-tetrahydronaphthalene-2-cyanide] | 1 to 500 nM
5 | N#Cc1cc2c(c(Cl)c1OCCCl)CCCC2c1cccc2cn[nH]c12 (stereo not shown) [HANT-194] | 1 to 500 nM
6 | CCCOc1c(C#N)cc2c(c1Cl)CCCC2c1cnc2[nH]ncc2c1 (stereo not shown) [HANT-196, 4-chloro-3-propoxy-8-(1H-pyrazolo[3,4-b]pyridin-5-yl)-5,6,7,8-tetrahydronaphthalene-2-carbo nitrile] | 1 to 500 nM
7 | N#Cc1cc2c(c(Cl)c1OCCCl)CCCC2c1cn[nH]c1 (stereo not shown) [HANT-200] | 500 to 1000 nM
8 | N#Cc1cc2c(c(Cl)c1OCCCl)CCCC2c1cnc2[nH]c(=O)ccc2c1 (stereo not shown) [HANT-202] | 1 to 500 nM
9 | N#Cc1cc2c(c(Cl)c1OCCCl)CCCC2c1ccc(N)nc1 (stereo not shown) [HANT-203] | 1 to 500 nM
10 | N#Cc1cc2c(c(Cl)c1OCCCl)CCC[C@H]2c1cnc(N)nc1 [HANT-204B] | 1 to 500 nM
11 | CC(=O)Nc1ccc(C2CCCc3c2cc(C#N)c(OCCCl)c3Cl)cn1 (stereo not shown) [HANT-205] | 1 to 500 nM
12 | CNC(=O)Oc1ccc(C2CCCc3c2cc(C#N)c(OCCCl)c3Cl)cc1 (stereo not shown) [HANT-206, 4-(5-chloro-6-(2-chloroethoxy)-7-cyano-1,2,3,4-tetrahydronaphthalen-1-yl)phenyl methylcarbamate] | 1 to 500 nM
13 | N#Cc1cc2c(c(Cl)c1OCCCl)CCCC2c1cnc2[nH]c(=O)oc2c1 (stereo not shown) [HANT-207, 4-chloro-3-(2-chloroethoxy)-8-(2-oxo-2,3-dihydrooxazolo[4,5-b]pyridin-6-yl)-5,6,7,8-tetrahydr onaphthalene-2-carbonitrile] | 500 to 1000 nM
14 | N#Cc1cc2c(c(Cl)c1OCCCl)CCCC2c1ccc2oc(=O)[nH]c2c1 (stereo not shown) [HANT-208] | 1 to 500 nM
15 | N#Cc1cc2c(c(Cl)c1OCCCl)CCCC2NC(=O)C1CCCCC1 (stereo not shown) [HANT-209] | 500 to 1000 nM
16 | N#Cc1cc2c(c(Cl)c1OCCCl)CCCC2NC(=O)c1ccccc1 (stereo not shown) [HANT-212] | 1 to 500 nM
17 | N#Cc1cc2c(c(Cl)c1OCCCl)CCCC2NC(=O)c1ccncc1 (stereo not shown) [HANT-214] | 500 to 1000 nM

Row | SMILES | IC50
18 | N#Cc1cc2c(c(Cl)c1OCCCl)CCCC2c1cnc2[nH]nc(-c3ccncc3)c2c1 (stereo not shown) [HANT-218, 4-chloro-3-(2-chloroethoxy)-8-(3-(pyridin-4-yl)-1H-pyrazolo[3,4-b]pyridin-5-yl)-5,6,7,8-tetrah ydronaphthalene-2-carbonitrile] | 1 to 500 nM
19 | N#Cc1cc2c(c(Cl)c1OCCCl)CCCC2c1cnc2[nH]nc(C3CCOCC3)c2c1 (stereo not shown) [HANT-220, 4-chloro-3-(2-chloroethoxy)-8-(3-(tetrahydro-2H-pyran-4-yl)-1H-pyrazolo[3,4-b]pyridin-5-yl)-5,6,7,8-tetrahydronaphthalene-2-cyanide] | > 2000 nM
20 | N#Cc1cc2c(c(Cl)c1OCCCl)CCCC2Nc1cc2cn[nH]c2cn1 (stereo not shown) [HANT-224] | 1 to 500 nM
21 | N#Cc1cc2c(c(Cl)c1OCCCl)CCCC2Nc1ccc2[nH]ncc2c1 (stereo not shown) [HANT-225, 8-((1H-indazol-5-yl)amino)-4-chloro-3-(2-chloroethoxy)-5,6,7,8-tetrahydronaphthalene-2-carb onitrile] | 1 to 500 nM
22 | N#Cc1cc2c(c(Cl)c1OCCCl)CCCC2Nc1cccnc1 (stereo not shown) [HANT-227] | 1 to 500 nM
23 | N#Cc1cc2c(c(Cl)c1OCCCl)CCCC2NC(=O)c1cccc(Cl)c1 (stereo not shown) [HANT-233] | 1 to 500 nM
24 | COc1ccc(C(=O)NC2CCCc3c2cc(C#N)c(OCCCl)c3Cl)cc1 (stereo not shown) [HANT-235] | 500 to 1000 nM
25 | N#Cc1cc2c(c(Cl)c1OCCCl)CCCC2Nc1cn[nH]c1 (stereo not shown) [HANT-239, 8-((1H-pyrazol-4-yl)amino)-4-chloro-3-(2-chloroethoxy)-5,6,7,8-tetrahydronaphthalene-2-carb onitrile] | 500 to 1000 nM
26 | N#Cc1cc2c(c(Cl)c1OCCCl)CCCC2Nc1ccc(N)nc1 (stereo not shown) [HANT-240, 8-((6-aminopyridin-3-yl)amino)-4-chloro-3-(2-chloroethoxy)-5,6,7,8-tetrahydronaphthalene-2-c arbonitrile] | 500 to 1000 nM
27 | COc1ccc(NC2CCCc3c2cc(C#N)c(OCCCl)c3Cl)cn1 (stereo not shown) [HANT-241] | 1 to 500 nM
28 | N#Cc1cc2c(c(Cl)c1OCCCl)CCCC2c1cncnc1 (stereo not shown) [HANT-246] | 1 to 500 nM
29 | N#Cc1cc2c(c(Cl)c1OCCCl)CCCC2c1cnc(N)cn1 (stereo not shown) [HANT-249] | 500 to 1000 nM
30 | N#Cc1cc2c(c(Cl)c1OCCCl)CCCC2Nc1cncnc1 (stereo not shown) [HANT-250] | 1 to 500 nM
31 | N#Cc1cc2c(c(Cl)c1OCCCl)CCCC2Nc1cnc(N)nc1 (stereo not shown) [HANT-251] | 1 to 500 nM
32 | N#Cc1cc2c(c(Cl)c1OCCCl)CCCC2Nc1cncc(F)c1 (stereo not shown) [HANT-254] | 1 to 500 nM
33 | N#Cc1cc2c(c(Cl)c1OCCCl)CCCC2c1cccnc1 (stereo not shown) [HANT-255] | 1 to 500 nM
34 | N#Cc1cc2c(c(Cl)c1OCCCl)CCCC2c1cncc(N)c1 (stereo not shown) [HANT-256] | 1000 to 2000 nM

Results, then the compound that gave them:

Row | IC50 | SMILES
35 | 1000 to 2000 nM | N#Cc1cc2c(c(Cl)c1OCCC(F)(F)F)CCCC2c1cnc2[nH]ncc2c1 (stereo not shown) [HANT-171]
36 | 1 to 500 nM | N#Cc1cc2c(c(Cl)c1OCCCl)CCCC2Nc1cccc2[nH]ncc12 (stereo not shown) [HANT-173]
37 | 1000 to 2000 nM | N#Cc1cc2c(c(Cl)c1OCCCl)CCCC2Nc1cc[nH]n1 (stereo not shown) [HANT-175]
38 | 1000 to 2000 nM | CNC(=O)c1cc2c(c(Cl)c1OCCCl)CCCC2c1cnc2[nH]ncc2c1 (stereo not shown) [HANT-183, 4-chloro-3-(2-chloroethoxy)-N-methyl-8-(1H-pyrazolo[3,4-b]pyridin-5-yl)-5,6,7,8-tetrahydrona phthalene-2-carboxamide]
39 | 500 to 1000 nM | N#Cc1cc2c(c(Cl)c1OCCCl)CCCC2NC(=O)c1cc[nH]n1 (stereo not shown) [HANT-188]
40 | 1 to 500 nM | N#Cc1cc2c(c(Cl)c1OCCCl)CCCC2Nc1ccc2[nH]ncc2n1 (stereo not shown) [HANT-191, 8-((1H-pyrazolo[4,3-b]pyridin-5-yl)amino)-4-chloro-3-(2-chloroethoxy)-5,6,7,8-tetrahydronaph thalene-2-carbonitrile]
41 | > 2000 nM | N#Cc1cc2c(c(Cl)c1OCCCl)CCC[C@@H]2c1cnc(N)nc1 [HANT-204A]
42 | 1000 to 2000 nM | N#Cc1cc2c(c(Cl)c1OCCCl)CCCC2NC(=O)c1cccnc1 (stereo not shown) [HANT-213]
43 | 1 to 500 nM | N#Cc1cc2c(c(Cl)c1OCCCl)CCCC2NC(=O)c1ccccn1 (stereo not shown) [HANT-215]
44 | 1 to 500 nM | N#Cc1cc2c(c(Cl)c1OCCCl)CCCC2Nc1ccccc1 (stereo not shown) [HANT-226]
45 | > 2000 nM | N#Cc1cc2c(c(Cl)c1OCCCl)CCCC2Nc1ccncc1 (stereo not shown) [HANT-228]
46 | 1 to 500 nM | N#Cc1cc2c(c(Cl)c1OCCCl)CCCC2Nc1ccc2cn[nH]c2c1 (stereo not shown) [HANT-229, 8-((1H-indazol-6-yl)amino)-4-chloro-3-(2-chloroethoxy)-5,6,7,8-tetrahydronaphthalene-2-carb onitrile]
47 | 1 to 500 nM | N#Cc1cc2c(c(Cl)c1OCCCl)CCCC2NC(=O)c1ccc(Cl)cc1 (stereo not shown) [HANT-232]
48 | 1 to 500 nM | N#Cc1ccc(C(=O)NC2CCCc3c2cc(C#N)c(OCCCl)c3Cl)cc1 (stereo not shown) [HANT-234]
49 | 1 to 500 nM | CNc1ncc(C2CCCc3c2cc(C#N)c(OCCCl)c3Cl)cn1 (stereo not shown) [HANT-247, 4-chloro-3-(2-chloroethoxy)-8-(2-(methylamino)pyrimidin-5-yl)-5,6,7,8-tetrahydronaphthalene-2-carbonitrile]
50 | 1 to 500 nM | N#Cc1cc2c(c(Cl)c1OCCCl)CCCC2c1cnc(NCCO)nc1 (stereo not shown) [HANT-248, 4-chloro-3-(2-chloroethoxy)-8-(2-((2-hydroxyethyl)amino)pyrimidin-5-yl)-5,6,7,8-tetrahydrona phthalene-2-carbonitrile]
51 | 1 to 500 nM | N#Cc1cc2c(c(Cl)c1OCCCl)CCCC2Nc1ccccn1 (stereo not shown) [HANT-252]
52 | 1 to 500 nM | CCCOc1c(C#N)cc2c(c1Cl)CCCC2c1cnc(N)nc1 (stereo not shown) [HANT-257]
